One assay relates to LOXIMVI melanoma cells. Nature of the assay: MTS cell viability, LOXIMVI. It counts as cell-based, human. The following applies: LOXIMVI melanoma, 4 days. The procedure: (§1) All human cancer cell lines were maintained in RPMI media supplemented with 5% (lung and breast cancer cells) or 10% (melanoma cells) fetal bovine serum. […] Human mammary epithelial cells immortalised with telomerase were maintained in complete MEGM media from Cambrex (East Rutherford, NJ, USA).
(§2) Absorbance at 490 and 650 nm (reference wavelength) was measured by a Spectra Max (Molecular Devices, Sunnyvale, CA, USA) or a FlouroStar Omega (BMG Biosciences, Ortenberg, Germany) plate reader. Data were normalised to the untreated controls (100% viability). Each cell line was tested in 1–5 independent assays, each containing 4–8 replicates. IC50 values were calculated using DIVISA, a high-throughput software, developed in-house (manuscript in preparation), for storing and analysing drug sensitivity assays. Dose–response curves were plotted using a non-linear regression model and IC50s were determined from the fitted curves.

Assay [1] relates to HBEC3KT human bronchial epithelial cells. Description: MTS cell viability, HBEC3KT. Format: cell-based. The following applies: 4 days. The procedure:
as §1, §2

The next assay relates to UACC62 melanoma cells. Nature of the assay: MTS cell viability, UACC62. Format: cell-based, human. The following applies: 4 days. The procedure:
as §1, §2

Assay [2] relates to HCC4017 lung cancer cells. Description: MTS cell viability, HCC4017. It counts as cell-based, human. To be noted: HCC4017 (lung cancer, matched to HBEC30KT), MTS, 4 days. The procedure:
as §1, §2

In assay [3] the target is purified recombinant HDAC1 (Homo sapiens, UniProt Q13547). The following applies: 50 nM.
Description: (§4) Cell extracts or purified recombinant HDAC enzymes were used in standard HDAC activity assays using Millipore's HDAC Fluorometric Assay Kit (Millipore, Billerica, MA, USA), according to the manufacturer's protocol. A FluoroStar Omega plate reader (BMG Biosciences) was used for fluorescent detection. Purified recombinant active HDACs 1, 5 and 8 were purchased from Millipore/Upstate.
The subject of assay [4] is HBEC16KT human bronchial epithelial cells. Nature of the assay: MTS cell viability, HBEC16KT. It counts as cell-based. The following applies: 4 days. The procedure:
as §1, §2

Another assay deals with H1437 cells. Description: ATP-based cell viability, H1437 vs H1299. On the set-up: species or system human. The following applies: cell viability by ATP measurements. The source says:
Supplementary Material Chang et al
This supplementary material contains:
-Supplementary Figure Legends
-Supplementary Figures 1- 4
Please see separate excel file for Supplementary Table 1.
Supplementary Figure Legends
Supplementary Figure 1: Expanded panel of cell lines showing distinct relative sensitivities to
TSA vs. depsipeptide. Lung cancer cell lines not depicted in the main Figure 1A are shown in A)
and an expanded set of breast cancer cells and HMES and melanomacells and melanocytes in
Supplementary Figure 2: Differential response to HDAC inhibitors is a general phenomenon. A)
H1299 also by ATP measurements.
Supplementary Figure 3: HDAC ex pression levels may contribute to drug sensitivity. A)
B) HDAC 2 levels are similar in the cell line
Supplementary Figure 4: Validation of microarray gene expression differences in the
H1993/H2073 cell line pair confirmed overexpression of glutathione metabolism genes in H2073
(shown in A) and downregulation of chromatin interacting proteins (B).

The subject of another assay is H1299 cells. Nature of the assay: MTS cell viability, H1299. It counts as cell-based, human. To be noted: H1299 NSCLC, 4 days. The procedure:
as §1, §2

The target in assay [5] is purified recombinant HDAC8 (Homo sapiens, UniProt Q9BY41).
Description: as §4
Assay [6] concerns total HDAC activity, C127 cells. Description: Total HDAC activity in lysates from drug-treated cells. It counts as cell-based. To be noted: 25 nM. The source says:
HDAC2 was purified as described below.

In assay [7] the test system is 348T immortalised normal human mammary epithelial cells. Description: MTS cell viability, 348T. To be noted: 4 days. It counts as cell-based. The procedure:
as §1, §2

In assay [8] the test system is histone 4 acetylation in H358 cells. Nature of the assay: Western blot, acetylated histone 4. It counts as cell-based, human. To be noted: 4 h. The procedure:
(§3) Exponentially growing cells were treated with the appropriate compounds and harvested 4 or 24 h later in a standard nuclear lysis buffer and whole cell lysates were quantified. Equal amounts of total protein were loaded onto 4–12% Bis-Tris SDS gels and subjected to electrophoresis. After transferring onto nitrocellulose membranes, blots were probed for acetylated tubulin (Sigma, St Louis, MO, USA; T6793), acetylated histone 3 (Millipore/Upstate #06-599), acetylated histone 4 (Millipore/Upstate #07-329) or trimethylated histone 3 at lysine 9 (Millipore/Upstate #07-523). Actin (Santa Cruz, Santa Cruz, CA, USA; #1616) and HDAC1 (Affinity Bioreagents, Rockford, IL, USA; #PA1-860) were probed as loading controls. Quantification of bands in films was performed using two independent methods, which yielded similar results, Image J (NIH public software) and Quantity one (Bio-Rad, Hercules, CA, USA). The average of the two methods±s.e.m. is shown as specified in figure legends. For the MDR western analysis, a primary antibody against P-glycoprotein from Calbiochem (Darmstadt, Germany) was used according to the manufacturer's recommendations and HSP90 (Santa Cruz) was used as a loading control.
(In general: Immunoblotting shows a protein as a band on a membrane.)

The test system of the next assay is A549 cells. Description: MTS cell viability, A549. Format: cell-based, human. The following applies: A549 NSCLC, 4 days. The procedure:
as §1, §2

In a further assay the test system is H292 cells. Description: MTS cell viability, H292. Format: cell-based, human. To be noted: H292 NSCLC, 4 days. The procedure: as §1, §2
For the next assay, the system named is UACC257 melanoma cells. Description: MTS cell viability, UACC257. Format: cell-based, human. The following applies: 4 days. The procedure: as §1, §2
In assay [9] the test system is HBEC30KT human bronchial epithelial cells. Description: MTS cell viability, HBEC30KT. The following applies: HBEC30KT (normal, matched to HCC4017), 4 days. It counts as cell-based. The procedure:
as §1, §2

The subject of assay [10] is histone 3 trimethylated at lysine 9 in H358 cells. Description: Western blot, histone 3 lysine 9 trimethylation. It counts as cell-based, human. The procedure: as §3
A further assay addresses T1, recombinant murine HDAC2 (Mus musculus, UniProt P70288).
T1 construct: The murine HDAC2 open reading frame was amplified by PCR from the plasmid pME18S-HDAC2; FLAG (DYKDDDDK) (C); made in house; host or cells: Sf9 insect cells (baculovirus)
Description: HDAC fluorometric activity assay, purified HDAC2. It counts as biochemical. To be noted: 400 nM.

The test system of assay [11] is acetylated tubulin in H358 cells. Description: Western blot, acetylated tubulin. Format: cell-based, human. The following applies: 200 nM, 24 h. The procedure: as §3

Molecules are shown by their SMILES. Where two headings read alike, the source gives them in different places.

Sequence of purified recombinant HDAC8 (Q9BY41 whole entry, species assumed): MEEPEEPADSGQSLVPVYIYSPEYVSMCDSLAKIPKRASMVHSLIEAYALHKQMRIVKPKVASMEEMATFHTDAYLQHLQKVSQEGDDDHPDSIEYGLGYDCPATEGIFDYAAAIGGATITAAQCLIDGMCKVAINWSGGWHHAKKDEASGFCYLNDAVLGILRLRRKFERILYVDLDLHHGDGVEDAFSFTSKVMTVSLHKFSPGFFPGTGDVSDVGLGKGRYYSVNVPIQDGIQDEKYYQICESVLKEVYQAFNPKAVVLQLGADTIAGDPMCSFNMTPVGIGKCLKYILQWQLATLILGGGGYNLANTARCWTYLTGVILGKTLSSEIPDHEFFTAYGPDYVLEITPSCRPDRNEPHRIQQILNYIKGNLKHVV
Sequence of purified recombinant HDAC1 (Q13547 whole entry, species assumed): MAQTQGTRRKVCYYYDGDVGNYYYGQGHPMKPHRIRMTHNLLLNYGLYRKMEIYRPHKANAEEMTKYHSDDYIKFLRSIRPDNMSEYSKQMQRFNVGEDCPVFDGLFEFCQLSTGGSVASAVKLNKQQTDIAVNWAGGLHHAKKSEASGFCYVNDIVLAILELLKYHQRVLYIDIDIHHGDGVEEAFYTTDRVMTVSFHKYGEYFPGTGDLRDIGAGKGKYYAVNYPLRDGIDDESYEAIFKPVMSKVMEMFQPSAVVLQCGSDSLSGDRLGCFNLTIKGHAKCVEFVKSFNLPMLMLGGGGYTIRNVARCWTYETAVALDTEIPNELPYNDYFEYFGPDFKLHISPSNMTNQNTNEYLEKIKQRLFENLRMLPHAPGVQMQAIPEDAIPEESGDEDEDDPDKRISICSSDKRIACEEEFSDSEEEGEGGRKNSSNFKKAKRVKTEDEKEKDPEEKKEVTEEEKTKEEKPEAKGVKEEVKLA
T1 sequence (P70288 whole entry): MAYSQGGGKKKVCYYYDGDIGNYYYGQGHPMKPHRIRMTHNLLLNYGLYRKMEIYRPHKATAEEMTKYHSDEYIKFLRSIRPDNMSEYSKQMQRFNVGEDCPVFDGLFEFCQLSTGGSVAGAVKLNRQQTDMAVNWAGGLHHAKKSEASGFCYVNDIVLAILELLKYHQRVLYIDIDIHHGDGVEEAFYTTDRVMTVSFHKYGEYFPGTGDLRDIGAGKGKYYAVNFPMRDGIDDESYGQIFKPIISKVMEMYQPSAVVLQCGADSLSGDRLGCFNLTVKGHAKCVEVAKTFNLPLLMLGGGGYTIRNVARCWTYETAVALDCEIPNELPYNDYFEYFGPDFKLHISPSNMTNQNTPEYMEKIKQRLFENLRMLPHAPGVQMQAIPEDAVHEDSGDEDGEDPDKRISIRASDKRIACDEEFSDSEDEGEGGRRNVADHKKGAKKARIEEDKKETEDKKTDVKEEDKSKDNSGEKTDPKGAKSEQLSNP
Description for recombinant murine HDAC2: Cell extracts or purified recombinant HDAC enzymes were used in standard HDAC activity assays using Millipore's HDAC Fluorometric Assay Kit (Millipore, Billerica, MA, USA), according to the manufacturer's protocol. A FluoroStar Omega plate reader (BMG Biosciences) was used for fluorescent detection. […] HDAC2 was purified as described below.

Take `C/C=C1\NC(=O)[C@H]2CSSCC/C=C/[C@H](CC(=O)N[C@H](C(C)C)C(=O)N2)OC(=O)[C@H](C(C)C)NC1=O` [Depsipeptide, depsipeptide]: the 50% inhibitory concentration (IC50) amounted to 1.2 nM in the assay with LOXIMVI melanoma cells; 1 nM in assay [1]; 0.9 nM in the assay on UACC62 melanoma cells; 6.5 nM in assay [2]; 4.9 nM in [4]; 12.1 nM with H1299 cells. In addition, the IC50 in assay [7] was 1.3 nM; with A549 cells, 2 nM; with H292 cells, 0.7 nM; in the assay with UACC257 melanoma cells, 1.6 nM; in [9] it was 0.9 nM. Further, the “inhibition of HDAC1 activity” value in assay [3] is on record as “no inhibition”. The “sensitivity of H1437 compared to H1299” value in the assay with H1437 cells was “greater sensitivity”. Also, the “inhibition of HDAC8 activity” value in [5] (50 nM) and in assay [5] (0.5 μM) was “no effect” throughout. Also, the “total HDAC activity in lysates made from treated cells vs DMSO-treated cells” value in assay [6] is on record as “strong inhibition”. For the same molecule, the “global level of histone 4 acetylation” value in assay [8] (25 nM) is on record as “globally increased”. For the same molecule, the “global level of histone 3 trimethylated at lysine 9” value in assay [10] (25 nM) is “reproducibly decreased”.
`CC(/C=C/C(=O)NO)=C\[C@@H](C)C(=O)c1ccc(N(C)C)cc1` [TSA, trichostatin A]: the IC50 in the assay with LOXIMVI melanoma cells worked out at 57 nM; in assay [1], 318 nM; in the assay with UACC62 melanoma cells, 238 nM; in [2] it was 73 nM; in assay [4], 260 nM; with H1299 cells, 150 nM. Besides, the IC50 is 81 nM in assay [7]; 39.7 nM with A549 cells; 22.5 nM in the assay on H292 cells; 222 nM in the assay on UACC257 melanoma cells; 285 nM in assay [9]. Moreover, the “inhibition of HDAC2 activity” value on recombinant murine HDAC2 is recorded as “fully inhibited”. Moreover, in assay [11], the acetylated tubulin levels result is “increase”. In addition, the “global level of histone 4 acetylation” value in assay [8] (200 nM) was “globally increased”. The “global level of histone 3 trimethylated at lysine 9” value in assay [10] (200 nM) is “no effect”.

For orientation: IC50 means the midpoint of a concentration-inhibition curve.

The values are drawn from PMC3251870 (British Journal of Cancer, 2011).
